# Source: patent US20250075218A1, “HIF1A OR GLUT1 INHIBITION IN INFLAMMATORY SKIN DISEASES” (New York University, priority 2023, published 2025)
# Several values for one entry are separate records, joined by “and”; a condition that tells them apart may be missing. Identical values can stand only once. Entries after “also recorded” stand apart in the source; their conditions may differ. Like-named read-outs stand apart in the source and are kept apart here.
# Key:
# epidermal HIF1α = assay: Immunofluorescence of PsO lesions before and after etanercept; type: in vivo, human; conditions: n=10
# Experimental: (§1) When compared to contralateral non-lesional skin, the PsO lesion was enriched for HIF1A, IL17RA, and IL17RC (FIGS. 3B and 8H). […] As a complementary analysis, HIF1α protein expression was measured in a cohort of 10 patients treated with etanercept (anti-TNFα) that achieved response (PASI 75 or greater) at 12 weeks (Table 2) (Stinco et al., 2019). […] Collectively, these analyses make a compelling argument for exuberant IL-17A signaling and subsequent HIF1α induction in fueling a pathological epithelial state that is resolved following successful biologic therapy, irrespective of cytokine target.
# Human skin immunofluorescence and image analyses. Four-micron paraffin-embedded sections were stained either with hematoxylin and eosin or with Akoya Biosciences® Opal™ multiplex automation kit on a Leica BondRX® autostainer, according to manufacturers' instructions. Semi-automated image acquisition was performed on a Vectra® Polaris multispectral imaging system. After whole slide scanning at 20× the tissue was manually outlined to select fields for spectral unmixing using InForm® version 2.4.11 software from Akoya Biosciences.
# PsO patients = assay: Clinical metrics of PsO patients over course of etanercept (anti-TNFα) therapy; type: in vivo, human; set-up: BSA: unit not given here
# Experimental: as §1
# uninflamed skin = conditions: for epidermal HIF1α levels (K14+HIF1α+ cells): topical on uninflamed skin for six days
# Experimental: To examine if HIF1α is sufficient to promote epithelial pathology in the absence of inflammation, a HIF1α activator, FG-4592, was used (Wu et al., 2016). […] Animal drug treatments. EdU pulse: Mice were injected intraperitoneally with EdU (50 μg/g) (Thermo Scientific) three hours prior to sacrifice. PIM HCl: Pimonidazole Hydrochloride (PIM HCl, hypoxyprobe) was injected intraperitoneally into mice (20 mg/kg) two hours prior to sacrifice. BAY 87-2243: BAY 87-2243 (2 mg/ml, Selleck Chemicals) was first dissolved in DMSO and then diluted in a water-based gel. This gel was topically applied to dorsal skin daily starting two days prior to imiquimod application and continuing in parallel with imiquimod application until analysis. Sodium Oxamate: Sodium oxamate (70 mg/ml, Cayman Chemicals) was first dissolved in H2O and then diluted in a water-based gel. This gel was topically applied to dorsal skin daily starting either on the first or fourth day of imiquimod application and continuing in parallel with imiquimod application until analysis. Syrosingopine: Syrosingopine (10 mg/ml, Cayman Chemicals) was first dissolved in DMSO and then diluted in a water-based gel. […] Sections were blocked and stained with primary and secondary fluorescence-conjugated antibody. […] Pimonidazole Hydrochloride (PIM HCl) was detected by pretreating slides with a mouse-on-mouse immunodetection kit (Vector Laboratories) and then staining with biotin-anti-PIM adduct antibodies as per the manufacturer's guidelines (Hypoxyprobe). Data were analyzed using ImageJ software. Epidermal thickness was quantified by measuring K14^+ thickness with an in-house ImageJ macro. Thickness of keratin 6 (K6) and glucose transporter 1 (Glut1) layer was quantified by measuring K6^+K14^+ and Glut1^+K14^+ thickness with an ImageJ macro. The number of CD3 and EdU positive cells was quantified using ImageJ software and normalized per dermis area and length of epidermis, respectively.
# IMQ-treated murine skin = assay: Lactate Secretion Assay of ex vivo murine back skin culture; type: cell-based, mouse; conditions: 2-DG 50 mM, 24 hours culture
# Experimental: To examine lactate levels in inflamed skin, full thickness biopsies of IMQ-treated or control skin were cultured for 24 hours, in the presence or absence of glycolysis inhibitor 2DG, and measured lactate in the culture supernatant (FIG. 13A). […] 4 mm full-thickness punch biopsies from IMQ-treated or healthy murine skin were secured with matrigel in 12-well plate and cultured for 24 hours in 400 μl of Dulbecco's Modified Eagle Medium (DMEM) with 10% Fetal Bovine Serum (FBS). For inhibitor studies, cultures were treated with 2-DG (50 mM). At the end of 24 hours, supernatant was collected, centrifuged at 1000 g to pellet debris, and stored in −80C until further use. Lactate was measured using the colorimetric L-Lactate Assay Kit (Abcam).
# PsO lesional human skin = assay: Ex vivo culture of human PsO lesional biopsies, bulk RNA-seq
# Description: Therefore, an ex vivo “trial in a dish” system was devised to test the effects of HIF1α inhibition on PsO lesional human skin. Lesional biopsies were obtained from 5 PsO patients that were either therapy-naïve or non-responsive to biologic therapy (Table 3). […] Surgical foreskin discards were used as healthy control skin and subject to the same treatment regimens.
# Human skin culture. 4 mm full-thickness punch biopsies from lesional psoriatic skin and healthy skin (foreskin) were cut into […], secured with matrigel in 24-well plate and cultured within a maximum of 24-hours after removal from the patient. Each biopsy piece was subjected to different treatment conditions: (1) DMSO vehicle, (2) 10 μM of BAY87-2243, and (3) 500 nM of calcipotriol and 5 μM of betamethasone dipropionate (standard of care). The tissue was cultured in 24-well plates in 500 μl of Dulbecco's Modified Eagle Medium (DMEM) with 10% Fetal Bovine Serum (FBS). After 24 hours of culture, tissues were flash-frozen in liquid nitrogen and stored in −80° C. until RNA extraction. Total RNA was extracted using the RNeasy Fibrous Tissue Mini Kit (Qiagen) per manufacturer's instructions. Libraries were generated with Ribo-Zero Plus rRNA Depletion Kit (Illumina) and sequenced on Novaseq 6000 system with 100-bp paired-end reads.
# Low-input bulk-RNA sequencing of human and murine skin. For human studies, skin biopsies were flash-frozen in liquid nitrogen following culture and treatment modalities. […] Libraries were generated with Ribo-Zero Plus rRNA Depletion Kit (Illumina) and sequenced on Novaseq 6000 system with 100-bp paired-end reads. […] Reads were trimmed for adapter sequences using trimmomatic (version 0.36) in paired end mode with the minimal read length option set to 35 base pairs, trailing set to 5, and the sliding window set to 4:15. Sequencing reads were aligned to the mouse genome (mm10/GRCm38) and human genome (hg38) using the splice-aware STAR aligner (Dobin et al, 2013). […]
# [1] = tested on: imiquimod (IMQ) PsO murine model; assay: Imiquimod (IMQ) PsO murine model with topical inhibitor treatment; type: in vivo, mouse; conditions: for cutaneous Type 17 immunity: interventional treatment after establishment of inflammation at day 3 of IMQ; for Type 17 cytokines (Il17a, Il22, Il23a, Il1b, Tnfa): topical during the course of IMQ treatment; for cutaneous T cell numbers (dermal CD3+ cells) / epithelial (epidermal) thickness: topical from first day, during the course of IMQ treatment
# Experimental: Murine models of psoriatic inflammation. Topical imiquimod application: For imiquimod studies, seven- to eight-week-old mice in telogen (resting phase of hair cycle) were anesthetized with isoflurane prior to hair removal and imiquimod treatment on dorsal skin. 50 mg of imiquimod cream (5%, Perrigo) was applied to shaved dorsal skin, and application was repeated up to six days as previously described (van der Fits et al., 2009). Intradermal rmIL-23 injection: For recombinant murine (rm) IL-23 studies, the ear pinnae in 8-week-old mice were intradermally injected with either rmIL-23 (500 ng in 20 μl of PBS, carrier-free, PeproTech) or PBS control for five days. Animal drug treatments. […] Murine skin immunofluorescence and image analyses. […] Nuclei were stained with DAPI. […] Data were analyzed using ImageJ software.
# [2] = Week 2 of etanercept, one line per individual patient
# [3] = Week 6 of etanercept, one line per individual patient
# [4] = Week 12 of etanercept, one line per individual patient
# [5] = BAY 87-2243 topical concurrent with IMQ, vs vehicle
# [6] = treatment begins on day 3 of IMQ application, up to day 6, vs vehicle
# [7] = vs vehicle, listed as MCT1/MCT4 inhibitor
compound,measurement,setting,value
etanercept,cutaneous Type 17 cells,epidermal HIF1α; etanercept responsive patients,reduction
same,epidermal hyperplasia (epidermal thickness),"epidermal HIF1α; etanercept-responsive patients, post-treated vs pre-treated lesional skin",reduced epidermal hyperplasia
same,expression of (nuclear) epidermal HIF1α,"epidermal HIF1α; post-treated vs pre-treated lesional PsO epidermis, responsive patients",lower expression; also recorded: reduced
same,BSA,PsO patients; [2],9 and 22 and 15 (2×) and 11 and 12 and 76 and 29 and 19 and 20
same,Static Physician's Global Assessment (SPGA),PsO patients; [2],3 (6×) and 2 (2×) and 4 (2×)
same,PASI,"PsO patients; Week 2 of etanercept, one line per individual patient (Patient 28-40)",9.5 and 3.9 and 8.1 and 9.4 and 14.3 and 31.5 and 17.4 and 18.8 and 10.7 and 10.8
same,BSA,PsO patients; [3],8 (2×) and 4 and 15 and 11 and 39 and 25 and 13 and 18 and 16
same,PASI,PsO patients; [3],7.4 and 2.7 and 4.8 and 8.4 and 4.4 and 15 and 6.6 and 12.3 and 8.2 and 4.5
same,Static Physician's Global Assessment (SPGA),PsO patients; [3],3 (3×) and 1 and 2 (6×)
same,BSA,PsO patients; [4],6 and 3 (2×) and 10 and 15 and 27 and 1 and 7 and 18 and 8
same,PASI,PsO patients; [4],4.5 (2×) and 2.7 and 2.4 and 11.6 and 3.2 and 12 and 0 and 2 and 8.4
same,Static Physician's Global Assessment (SPGA),PsO patients; [4],2 (4×) and 1 (4×) and 3 (2×)
same,PASI response achieved,"PsO patients; cohort of 10 patients, at 12 weeks",≥ 75
Cc1nc(C(=O)NCC(=O)O)c(O)c2ccc(Oc3ccccc3)cc12 [FG-4592],epidermal HIF1α levels (K14+HIF1α+ cells),uninflamed skin,effectively heightened
same,epidermal HIF1α levels (K14+HIF1α+ cells),uninflamed skin; listed as FG-4985,increased
"O=CC[C@@H](O)[C@H](O)[C@H](O)CO [2DG, 2-Deoxy-D-glucose]","lactate in culture supernatant, IMQ-treated vs control skin",IMQ-treated murine skin,diminished
same,"lactate in culture supernatant, IMQ-treated vs control skin",IMQ-treated murine skin; listed as 2-DG,lost
Cc1cc(-c2nc(-c3ccc(OC(F)(F)F)cc3)no2)nn1Cc1ccnc(N2CCN(C3CC3)CC2)c1 [BAY 87-2243],"genes associated with glycolytic metabolism, STAT3 activation and epithelial development/differentiation","PsO lesional human skin; PsO lesional skin, 10 μM, 24 hours, vs vehicle",strikingly downregulated
same,number of differentially expressed genes (DEGs) compared to vehicle control,"PsO lesional human skin; PsO lesional skin, 24 hours in culture, FDR<0.05, 10 μM BAY87-2243, SoC 500 nM calcipotriol and 5 μM betamethasone dipropionate",2921
same,expression of lactate transporters SLC16A1 (MCT1) and SLC16A3 (MCT4),"PsO lesional human skin; human PsO lesional skin culture, 24 hours",significantly reduced
same,epidermal thickness,"uninflamed skin; mouse, in vivo",not altered
same,epidermal thickness,"[1]; BAY 87-2243 2 mg/ml gel topical daily from two days prior to and concurrent with IMQ, vs vehicle",diminished; also recorded: significantly reduced
same,dermal T cells (CD3+),"[1]; BAY 87-2243 topical concurrent with IMQ, vs control",reduction; also recorded: significantly lower numbers
same,inflammatory Keratin 6 expression (K6 thickness),[1]; [5],significantly reduced
same,proliferation (Ki67),[1]; [5],significantly reduced
NC(=O)C(=O)[O-].[Na+] [sodium oxamate],cutaneous Type 17 immunity,[1],decrease
same,"Type 17 cytokines (Il17a, Il22, Il23a, Il1b, Tnfa)",[1],sufficient to limit
same,cutaneous T cell numbers (dermal CD3+ cells),[1]; vs vehicle,diminished; also recorded: sufficient to limit
same,epithelial (epidermal) thickness,[1]; vs vehicle,diminished; also recorded: sufficient to limit
same,epidermal thickness,[1]; [6],decrease
same,dermal CD3+ cells,"[1]; treatment begins on day 3 of IMQ application, vs vehicle",diminished
CCOC(=O)Oc1c(OC)cc(C(=O)O[C@@H]2C[C@@H]3CN4CCc5c([nH]c6cc(OC)ccc56)[C@H]4C[C@@H]3[C@H](C(=O)OC)[C@H]2OC)cc1OC [syrosingopine],cutaneous Type 17 immunity,[1],decrease
same,"Type 17 cytokines (Il17a, Il22, Il23a, Il1b, Tnfa)",[1],sufficient to limit
same,cutaneous T cell numbers (dermal CD3+ cells),[1]; vs vehicle,sufficient to limit
same,epithelial (epidermal) thickness,[1]; vs vehicle,sufficient to limit
same,cutaneous T cell numbers (dermal CD3+ cells),[1]; [7],diminished
same,epithelial (epidermal) thickness,[1]; [7],diminished
same,epidermal thickness,[1]; [6],decrease
same,dermal CD3+ cells,"[1]; treatment begins on day 3 of IMQ application, vs vehicle, listed as MCT1/MCT4 inhibitor",diminished
